Results on 18 compounds are retold here after EP4759807A1, “PROTEOLYSIS TARGETING CHIMERA COMPOUND FOR DEGRADING IRAK4 AND USE THEREOF” (Shenzhen Zhongge Biological Technology Co., Ltd., priority 2023, dated 2025).

Counter-ions that a name gives are not always drawn.

The target in test [1] is T1, IRAK4 (Homo sapiens, UniProt Q9NWZ3).
T1 sequence (Q9NWZ3 1-460): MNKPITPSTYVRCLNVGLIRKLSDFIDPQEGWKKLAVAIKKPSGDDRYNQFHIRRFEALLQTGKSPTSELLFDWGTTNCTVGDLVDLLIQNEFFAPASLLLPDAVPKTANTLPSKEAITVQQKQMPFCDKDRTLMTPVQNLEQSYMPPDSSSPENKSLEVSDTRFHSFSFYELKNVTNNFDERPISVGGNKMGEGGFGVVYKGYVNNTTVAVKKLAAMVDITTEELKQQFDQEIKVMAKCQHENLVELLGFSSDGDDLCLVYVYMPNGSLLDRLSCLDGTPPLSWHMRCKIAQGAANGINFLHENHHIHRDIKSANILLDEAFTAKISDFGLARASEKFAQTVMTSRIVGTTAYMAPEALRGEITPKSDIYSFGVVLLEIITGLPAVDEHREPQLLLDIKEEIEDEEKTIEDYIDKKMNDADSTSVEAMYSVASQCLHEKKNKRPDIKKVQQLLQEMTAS
Briefly: WB detection of proteolysis (Western Blot, THP-1 cells). The class given is cell-based. Put shortly:
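IRAK4 level in RIPA lysates read by Western blot with Odyssey imaging; values from bell-shaped non-linear fit with two four-parameter sections (Plateau1, Plateau2, Dip, LogEC50_1/2, nH1/2).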

For test [2], the target named is T1, IRAK4. Kind of test: Hibit fluorescence detection of proteolysis (IRAK4-HiBiT in HEK293T cells). The class given is cell-based. On the set-up: host or cells: HEK293T (ATCC). The note with it: for Dmax: HEK-293T; for DC50: IRAK4-HiBiT, HEK293T cells, 24 h. Put shortly:
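Degradation read-out: luminescence from lytic HiBiT detection (15 min, room temperature) after 24 h compound exposure (37 °C, 5% CO2) of HEK293T cells transiently expressing IRAK4 fused to a HiBiT tag. Data fitted to a bell-shaped four-parameter model giving two EC50 values.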

[3] abbreviates: Western Blot, THP-1 cells, 24 h, read-out: DC50.
Where [4] appears, read: Western Blot, THP-1 cells, 24 h, read-out: Dmax.

As for `Cn1c(=O)n(C2CCC(=O)NC2=O)c2cccc(N3CCC4(CCN(C[C@H]5CC[C@H](n6cc(-n7cc(-c8cnn9ccc(N[C@@H]%10CCCC[C@@H]%10O)nc89)nn7)c(C(F)F)n6)CC5)C4)CC3)c21` (stereo partly drawn) [Example 154], the figures for the DC50 in test [1] (setting [3]) and in test [2] were less than 10 nM and less than 0.5 nM, respectively. The Dmax in test [1] (setting [4]) is greater than 70%; in test [2] it was greater than 80%.
In the case of `Cn1c(=O)n(C2CCC(=O)NC2=O)c2cccc(N3CCC(N4CCN(C[C@H]5CC[C@H](n6cc(-n7cc(-c8cnn9ccc(N%10CCC(C)(O)CC%10)nc89)nn7)c(C(F)F)n6)CC5)CC4)CC3)c21` (stereo partly drawn) [Example 124], the DC50 was less than 10 nM in test [1] (setting [3]) and less than 0.5 nM in test [2]. For the same compound, the Dmax was 60 to 70% in test [1] (setting [4]) and greater than 80% in test [2].
Taken in the same sequence, the figures for `Cn1c(=O)n(C2CCC(=O)NC2=O)c2cccc(N3CCC4(CCN(C[C@H]5CC[C@H](n6cc(-n7cc(-n8ccc9cc(C(N)=O)cnc98)nn7)c(C(F)F)n6)CC5)CC4)CC3)c21` (stereo partly drawn) [Example 99] were 10 to 30 nM, less than 0.5 nM, less than 60% and greater than 80%.
In the case of `Cn1c(=O)n(C2CCC(=O)NC2=O)c2cccc(N3CCN(C[C@H]4CC[C@H](n5cc(-n6cc(-c7cnn8ccc(N9CCNCC9)nc78)nn6)c(C(F)F)n5)CC4)CC3)c21` (stereo partly drawn) [Example 132, 3-(4-(1R,4R)-4-(3-difluoromethyl)-4-(4-(5-(piperazin-1-yl)pyrazolo[1,5-a]pyrimidin-3-yl)-1H-1,2,3-triazol-1-yl)-1H-pyrazol-1-yl)cyclohexyl)methyl)piperazin-1-yl)-3-methyl-2-oxo-2,3-dihydro-1H-benzoimidazol-1-yl)piperidine-2,6-dione dihydrochloride], the DC50 in test [1] (setting [3]) was less than 10 nM; in test [2] it was 0.5 to 1 nM. Further, the Dmax is 60 to 70% in test [1] (setting [4]) and greater than 80% in test [2].
With `Cn1c(=O)n(C2CCC(=O)NC2=O)c2cccc(N3CCN(C[C@H]4CC[C@H](n5cc(-n6cc(-c7cnn8ccc(N9CCC[C@@H](O)C9)nc78)nn6)c(C(F)F)n5)CC4)CC3)c21` (stereo partly drawn) [Example 243], the DC50 was less than 10 nM in test [1] (setting [3]) and less than 0.5 nM in test [2]. In addition, the Dmax in test [1] (setting [4]) is greater than 70%; in test [2], greater than 80%.
Taken in the same sequence, the figures for `Cn1c(=O)n(C2CCC(=O)NC2=O)c2cccc(N3CCC4(CCN(C[C@H]5CC[C@H](n6cc(-n7cc(-c8cnn9ccc(N%10CCC[C@H](N)C%10)nc89)nn7)c(C(F)F)n6)CC5)CC4)C3)c21` (stereo partly drawn) [Example 116] were 10 to 30 nM, 0.5 to 1 nM, 60 to 70% and greater than 80%.
For `Cn1c(=O)n(C2CCC(=O)NC2=O)c2cccc(N[C@H]3CC[C@H](N(C)C[C@H]4CC[C@H](n5cc(-n6cc(-c7ccc8cc(C(N)=O)cnn78)nn6)c(C(F)F)n5)CC4)CC3)c21` (stereo partly drawn) [Example 61, 7-(1-(3-(difluoromethyl)-1-((1R,4r)-4-((((1r,4R)-4-((1-(2,6-dioxopiperidin-3-yl)-3-methyl-2-oxo-2,3-dihydro-1H-benzo[d]imidazol-4-yl)amino)cyclohexyl)(methyl)amino)methyl)cyclohexyl)-1H-pyrazol-4-yl)-1H - 1,2,3-triazol-4-yl)pyrrolo[1,2-b]pyridazine-3-carboxamide], the DC50 was less than 10 nM in test [1] (setting [3]) and less than 0.5 nM in test [2]. Moreover, the Dmax was 60 to 70% in test [1] (setting [4]) and greater than 80% in test [2].
Regarding `C[C@H]1COCCN1c1ccn2ncc(-c3cn(-c4cn([C@H]5CC[C@H](CN6CCN(C7CCN(c8cccc9c8n(C)c(=O)n9C8CCC(=O)NC8=O)CC7)CC6)CC5)nc4C(F)F)nn3)c2n1` (stereo partly drawn) [Example 59], the DC50 was less than 10 nM in test [1] (setting [3]) and less than 0.5 nM in test [2]. Further, the Dmax in test [1] (setting [4]) was greater than 70%; in test [2], 70 to 80%.
Taken in the same sequence, the figures for `Cn1c(=O)n(C2CCC(=O)NC2=O)c2cccc(N3CCN(C[C@H]4CC[C@H](n5cc(-n6cc(-c7cnn8ccc(N9CCOCC9)nc78)nn6)c(C(F)F)n5)CC4)CC3)c21` (stereo partly drawn) [Example 30] were less than 10 nM, less than 0.5 nM, less than 60% and greater than 80%.
`Cn1c(=O)n(C2CCC(=O)NC2=O)c2cccc(N3CCC4(CCN(C[C@H]5CC[C@H](n6cc(-n7cc(-n8ccc9cc(C(N)=O)cnc98)nn7)c(C(F)F)n6)CC5)CC4)C3)c21` (stereo partly drawn) [Example 103, 1-(1-(3-(difluoromethyl)-1-((1r,4r)-4-(2-(1-(2,6-dioxopiperidin-3-yl)-3-methyl-2-oxo-2,3-dihydro-1H-benzo[d]imidazol-4-yl)-2,8-diazaspiro[4.5]dec-8-yl)methyl)cyclohexyl)-1H-pyrazol-4-yl)-1H-1,2,3-triazol-4-yl]: the DC50 was less than 10 nM in test [1] (setting [3]) and less than 0.5 nM in test [2]. Also, the Dmax in test [1] (setting [4]) is less than 60%; in test [2], greater than 80%.
As to `Cn1c(=O)n(C2CCC(=O)NC2=O)c2cccc(N3CCC4(CCN(C[C@H]5CC[C@H](n6cc(-n7cc(-c8ccc9cc(C(N)=O)cnn89)nn7)c(C(F)F)n6)CC5)CC4)C3)c21` (stereo partly drawn) [Example 62, 7-(1-(3-(difluoromethyl)-1-((1r,4r)-4-((2-(1-(2,6-dioxopiperidin-3-yl)-3-methyl-2-oxo-2,3-dihydro-1H-benzo[d]imidazol-4-yl)-2,8-diazaspiro[4.5]dec-8-yl)methyl)cyclohexyl)-1H-pyrazol-4-yl)-1H-pyrazol-1,2,3-triazol-4yl)pyrrolo[1,2-b]pyridazine-3-carboxamide], the DC50 in test [1] (setting [3]) is less than 10 nM; in test [2] it was less than 0.5 nM. Moreover, the Dmax in test [1] (setting [4]) was greater than 70%; in test [2], greater than 80%.
With `Cn1c(=O)n(C2CCC(=O)NC2=O)c2cccc(N3CCC4(CCN(C[C@H]5CC[C@H](n6cc(-n7cc(-n8ccc9cc(C(N)=O)cnc98)nn7)c(C(F)F)n6)CC5)C4)CC3)c21` (stereo partly drawn) [Example 97, 1-(1-(3-(difluoromethyl)-1-((1r,4r)-4-((8-(1-(2,6-dioxopiperidin-3-yl)-3-methyl-2-oxo-3,3-dihydro-1H-benzo[d]imidazol-4-yl)-2,8-diazaspiro[4.5]dec-2-yl)methyl)cyclohexyl)-1H-pyrazol-4-yl)-1H-1-1,2,3-triazolyl)-1H-pyrrolo[2,3-b]pyridine-5-carboxamide], the Dmax in test [1] (THP-1) was greater than 70%; in test [2], greater than 80%. In addition, the DC50 in test [1] (Western Blot, THP-1 cells, 24 h) was less than 10 nM; in test [2], less than 0.5 nM.
With `Cn1c(=O)n(C2CCC(=O)NC2=O)c2cccc(C3CCN(C[C@H]4CC[C@H](n5cc(-n6cc(-c7ccc8cc(C(N)=O)cnn78)nn6)c(C(F)F)n5)CC4)CC3)c21` (stereo partly drawn) [Example 84, 7-(1-(3-(difluoromethyl)-1-((1r,4r)-4-((4-(1-(2,6-dioxopiperidin-3-yl)-3-methyl-2-oxo-2,3-dihydro-1H-benzo[d]imidazol-4-yl)piperidin-1-yl)methyl)cyclohexyl)-1H-pyrazol-4-yl)-1H-1,2,3-triazol-4-yl)pyrrolo[1,2-b]pyridazine-3-carboxamide], the DC50 in test [1] (setting [3]) is less than 10 nM; in test [2] it was less than 0.5 nM. Besides, the Dmax in test [1] (setting [4]) is less than 60%; in test [2], greater than 80%.
Turning to `Cn1c(=O)n(C2CCC(=O)NC2=O)c2cccc(N3CCC(N4CCN(C[C@H]5CC[C@H](n6cc(-n7cc(-c8cnn9ccc(NCCC(C)(C)O)nc89)nn7)c(C(F)F)n6)CC5)CC4)CC3)c21` (stereo partly drawn) [Example 125], the DC50 is less than 10 nM in test [1] (setting [3]) and less than 0.5 nM in test [2]. For the same compound, the Dmax in test [1] (setting [4]) was greater than 70%; in test [2] it was greater than 80%.
In the case of `Cn1c(=O)n(C2CCC(=O)NC2=O)c2cccc(N[C@H]3CC[C@H](N(C)C[C@H]4CC[C@H](n5cc(-n6cc(-c7cnn8ccc(N9CCC[C@H](N)C9)nc78)nn6)c(C(F)F)n5)CC4)CC3)c21` (stereo partly drawn) [Example 118], the values for the DC50 in test [1] (setting [3]) and in test [2] were 10 to 30 nM and less than 0.5 nM, respectively. The Dmax in test [1] (setting [4]) was greater than 70%; in test [2] it was greater than 80%.
Taken in the same sequence, the figures for `C[C@H]1CN(c2cccc3c2n(C)c(=O)n3C2CCC(=O)NC2=O)CCN1C[C@H]1CC[C@H](n2cc(-n3cc(-c4cnn5ccc(N6CCC[C@H](N)C6)nc45)nn3)c(C(F)F)n2)CC1` (stereo partly drawn) [Example 285] were greater than 30 nM, less than 0.5 nM, 60 to 70% and greater than 80%.
With `Cn1c(=O)n(C2CCC(=O)NC2=O)c2cccc(N3CCC4(CCN(C[C@H]5CC[C@H](n6cc(-n7cc(-c8cnn9ccc(NCCC(C)(C)O)nc89)nn7)c(C(F)F)n6)CC5)CC4)CC3)c21` (stereo partly drawn) [Example 126], the DC50 in test [1] (setting [3]) was less than 10 nM; in test [2] it was less than 0.5 nM. Further, the Dmax in test [1] (setting [4]) is greater than 70%; in test [2], greater than 80%.
Taken in the same sequence, the figures for `Cn1c(=O)n(C2CCC(=O)NC2=O)c2cccc(N3CCN(C[C@H]4CC[C@H](n5cc(-n6cc(-c7cnn8ccc(N9CCC[C@H](O)C9)nc78)nn6)c(C(F)F)n5)CC4)CC3)c21` (stereo partly drawn) [Example 141] were less than 10 nM, less than 0.5 nM, greater than 70% and greater than 80%.
